Results from patent US10231954B2, “Neurodegenerative therapies” (LYTIX BIOPHARMA AS, priority 2014, dated 2019).
Like-named read-outs stand apart in the source and are kept apart here.

What was measured:
Type in all cases: biochemical
CDK9-Cyclin T1 = CDK9-Cyclin T1 (Homo sapiens, UniProt P50750); assay: Kinase profiling CDK9-Cyclin T1; conditions: read-out: residual kinase activity, CDK9-Cyclin T1
Text: (§1) Any value less that 25 is considered to be highly significant inhibition.

IKKb = molecular target: T1, IKKb (Homo sapiens, UniProt O14920); assay: Kinase profiling IKKb; conditions: read-out: residual kinase activity, IKKb
T1 sequence (O14920 1-756): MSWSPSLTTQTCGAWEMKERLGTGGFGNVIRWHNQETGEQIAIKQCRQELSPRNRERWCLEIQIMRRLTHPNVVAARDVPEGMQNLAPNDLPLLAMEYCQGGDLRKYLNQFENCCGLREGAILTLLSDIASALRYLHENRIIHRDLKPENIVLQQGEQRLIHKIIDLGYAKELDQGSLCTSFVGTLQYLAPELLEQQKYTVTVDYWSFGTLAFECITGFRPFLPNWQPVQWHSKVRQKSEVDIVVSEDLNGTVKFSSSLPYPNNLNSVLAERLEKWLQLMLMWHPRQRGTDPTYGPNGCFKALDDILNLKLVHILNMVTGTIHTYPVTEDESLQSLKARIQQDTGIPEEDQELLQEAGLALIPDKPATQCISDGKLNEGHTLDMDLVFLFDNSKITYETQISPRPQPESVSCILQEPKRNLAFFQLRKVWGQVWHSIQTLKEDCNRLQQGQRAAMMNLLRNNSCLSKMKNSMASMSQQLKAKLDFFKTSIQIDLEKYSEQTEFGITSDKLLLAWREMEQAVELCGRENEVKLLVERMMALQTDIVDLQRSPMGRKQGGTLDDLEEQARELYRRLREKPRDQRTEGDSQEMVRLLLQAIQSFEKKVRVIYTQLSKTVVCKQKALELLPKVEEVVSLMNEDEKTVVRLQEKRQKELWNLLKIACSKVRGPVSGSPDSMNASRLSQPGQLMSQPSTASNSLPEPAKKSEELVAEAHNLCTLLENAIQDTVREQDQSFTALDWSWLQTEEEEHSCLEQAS
Text: as §1

IRR = IRR (Homo sapiens, UniProt P14616); assay: Kinase profiling IRR; conditions: read-out: residual kinase activity, IRR
Text: as §1

MNK2 = MNK2 (Homo sapiens, UniProt Q9HBH9); assay: Kinase profiling MNK2; conditions: read-out: residual kinase activity, MNK2
MNK2, sequence (Q9HBH9 whole entry, species assumed): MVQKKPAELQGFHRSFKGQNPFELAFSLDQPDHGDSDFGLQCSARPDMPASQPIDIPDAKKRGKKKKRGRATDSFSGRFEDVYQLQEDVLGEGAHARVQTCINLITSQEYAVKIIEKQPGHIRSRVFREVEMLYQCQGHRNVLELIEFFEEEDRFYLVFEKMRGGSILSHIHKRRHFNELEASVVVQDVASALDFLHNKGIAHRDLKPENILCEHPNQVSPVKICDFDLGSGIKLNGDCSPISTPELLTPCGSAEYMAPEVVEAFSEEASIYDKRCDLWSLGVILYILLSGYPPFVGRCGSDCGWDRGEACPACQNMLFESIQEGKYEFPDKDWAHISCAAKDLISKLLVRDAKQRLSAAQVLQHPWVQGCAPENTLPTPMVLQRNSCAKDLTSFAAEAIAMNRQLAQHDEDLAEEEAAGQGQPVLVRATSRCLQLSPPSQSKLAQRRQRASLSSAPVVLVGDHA
Text: as §1

TTBK1 = TTBK1 (Homo sapiens, UniProt Q5TCY1); assay: Kinase profiling TTBK1; conditions: read-out: residual kinase activity, TTBK1
TTBK1, sequence (Q5TCY1 whole entry, species assumed): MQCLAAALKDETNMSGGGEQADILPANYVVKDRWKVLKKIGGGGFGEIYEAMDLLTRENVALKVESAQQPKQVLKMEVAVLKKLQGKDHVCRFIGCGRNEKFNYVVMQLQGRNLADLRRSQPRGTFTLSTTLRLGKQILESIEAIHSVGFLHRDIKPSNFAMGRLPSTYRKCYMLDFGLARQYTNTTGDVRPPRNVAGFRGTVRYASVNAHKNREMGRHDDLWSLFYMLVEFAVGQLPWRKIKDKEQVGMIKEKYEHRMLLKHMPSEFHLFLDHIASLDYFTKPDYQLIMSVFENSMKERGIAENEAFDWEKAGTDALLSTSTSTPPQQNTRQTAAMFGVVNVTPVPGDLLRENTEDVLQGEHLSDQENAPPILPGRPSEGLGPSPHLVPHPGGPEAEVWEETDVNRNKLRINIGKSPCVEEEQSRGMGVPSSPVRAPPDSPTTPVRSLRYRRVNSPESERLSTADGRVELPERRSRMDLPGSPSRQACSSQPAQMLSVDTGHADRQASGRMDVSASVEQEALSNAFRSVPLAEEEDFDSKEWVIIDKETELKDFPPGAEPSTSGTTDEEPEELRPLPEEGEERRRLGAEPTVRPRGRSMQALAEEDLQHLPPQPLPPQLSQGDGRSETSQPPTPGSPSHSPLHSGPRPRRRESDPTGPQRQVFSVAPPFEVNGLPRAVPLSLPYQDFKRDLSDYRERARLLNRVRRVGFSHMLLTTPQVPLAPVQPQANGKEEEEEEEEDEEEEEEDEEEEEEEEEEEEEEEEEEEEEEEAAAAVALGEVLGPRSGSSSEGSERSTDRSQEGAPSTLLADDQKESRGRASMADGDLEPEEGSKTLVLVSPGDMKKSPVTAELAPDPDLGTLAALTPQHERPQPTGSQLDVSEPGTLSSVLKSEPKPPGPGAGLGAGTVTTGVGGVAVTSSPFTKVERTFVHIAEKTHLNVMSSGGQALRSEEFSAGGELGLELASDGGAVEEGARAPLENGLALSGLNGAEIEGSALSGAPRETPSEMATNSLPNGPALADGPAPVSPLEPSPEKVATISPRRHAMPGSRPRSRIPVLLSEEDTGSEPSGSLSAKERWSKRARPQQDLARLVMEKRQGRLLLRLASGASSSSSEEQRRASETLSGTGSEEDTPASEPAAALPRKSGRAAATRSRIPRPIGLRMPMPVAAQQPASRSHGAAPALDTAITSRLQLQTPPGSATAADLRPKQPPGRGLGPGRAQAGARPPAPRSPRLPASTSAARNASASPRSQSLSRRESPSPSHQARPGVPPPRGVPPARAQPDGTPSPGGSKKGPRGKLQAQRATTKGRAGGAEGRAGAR
Text: as §1

IR = IR (Homo sapiens, UniProt P06213); assay: Kinase profiling IR; conditions: read-out: residual kinase activity, IR
IR, sequence (P06213 28-1382): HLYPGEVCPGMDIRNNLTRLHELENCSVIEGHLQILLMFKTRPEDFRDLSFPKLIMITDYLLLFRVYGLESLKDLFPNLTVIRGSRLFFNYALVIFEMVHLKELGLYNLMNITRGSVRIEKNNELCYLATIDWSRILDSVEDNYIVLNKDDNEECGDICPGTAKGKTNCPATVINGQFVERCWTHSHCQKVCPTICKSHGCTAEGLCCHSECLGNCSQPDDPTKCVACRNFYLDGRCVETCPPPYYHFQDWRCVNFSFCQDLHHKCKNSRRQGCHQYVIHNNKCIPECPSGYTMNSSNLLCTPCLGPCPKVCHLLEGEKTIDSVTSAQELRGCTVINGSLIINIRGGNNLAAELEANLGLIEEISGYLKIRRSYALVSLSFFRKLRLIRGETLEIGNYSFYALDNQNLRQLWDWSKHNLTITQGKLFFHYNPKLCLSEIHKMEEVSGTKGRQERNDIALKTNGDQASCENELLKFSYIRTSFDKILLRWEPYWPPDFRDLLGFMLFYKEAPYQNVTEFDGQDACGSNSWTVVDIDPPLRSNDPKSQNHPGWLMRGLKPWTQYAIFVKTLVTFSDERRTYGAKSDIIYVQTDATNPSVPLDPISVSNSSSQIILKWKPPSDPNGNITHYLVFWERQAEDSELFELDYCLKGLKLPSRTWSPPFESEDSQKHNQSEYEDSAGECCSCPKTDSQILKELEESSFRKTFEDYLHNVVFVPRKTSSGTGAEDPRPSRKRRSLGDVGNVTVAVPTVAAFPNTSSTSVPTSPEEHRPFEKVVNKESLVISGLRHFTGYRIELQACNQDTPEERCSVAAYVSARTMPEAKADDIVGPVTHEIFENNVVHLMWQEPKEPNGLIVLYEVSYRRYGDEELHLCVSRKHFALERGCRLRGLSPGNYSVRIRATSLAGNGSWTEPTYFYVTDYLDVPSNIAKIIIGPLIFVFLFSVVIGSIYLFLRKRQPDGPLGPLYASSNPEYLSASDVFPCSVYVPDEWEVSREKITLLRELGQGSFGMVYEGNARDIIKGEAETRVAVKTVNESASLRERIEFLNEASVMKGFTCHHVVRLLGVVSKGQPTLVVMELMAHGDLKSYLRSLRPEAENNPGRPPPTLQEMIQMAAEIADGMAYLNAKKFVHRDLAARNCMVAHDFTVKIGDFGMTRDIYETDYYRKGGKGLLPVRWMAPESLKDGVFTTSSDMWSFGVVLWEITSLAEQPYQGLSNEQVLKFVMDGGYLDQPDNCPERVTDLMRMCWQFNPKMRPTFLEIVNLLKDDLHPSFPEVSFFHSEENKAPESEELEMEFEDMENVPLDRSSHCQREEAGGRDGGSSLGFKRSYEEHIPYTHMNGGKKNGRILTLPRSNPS
Text: as §1

MPSK1 = MPSK1 (Homo sapiens, UniProt O75716); assay: Kinase profiling MPSK1; conditions: read-out: residual kinase activity, MPSK1
MPSK1, sequence (O75716 whole entry, species assumed): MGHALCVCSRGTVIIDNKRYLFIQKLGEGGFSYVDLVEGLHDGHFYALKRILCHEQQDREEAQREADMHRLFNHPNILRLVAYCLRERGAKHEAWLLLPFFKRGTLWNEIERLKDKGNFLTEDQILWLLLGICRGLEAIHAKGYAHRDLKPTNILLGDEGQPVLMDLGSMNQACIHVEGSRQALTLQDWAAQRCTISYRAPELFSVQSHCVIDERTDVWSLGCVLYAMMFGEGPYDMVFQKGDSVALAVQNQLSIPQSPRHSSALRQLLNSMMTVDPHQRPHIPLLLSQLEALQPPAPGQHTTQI
Text: as §1

WNK1 = WNK1 (Homo sapiens, UniProt Q9H4A3); assay: Kinase profiling WNK1; conditions: read-out: residual kinase activity, WNK1
Text: as §1

MAPKAP-K2 = MAPKAP-K2 (Homo sapiens, UniProt P49137); assay: Kinase profiling MAPKAP-K2; conditions: read-out: residual kinase activity, MAPKAP-K2
MAPKAP-K2, sequence (P49137 whole entry, species assumed): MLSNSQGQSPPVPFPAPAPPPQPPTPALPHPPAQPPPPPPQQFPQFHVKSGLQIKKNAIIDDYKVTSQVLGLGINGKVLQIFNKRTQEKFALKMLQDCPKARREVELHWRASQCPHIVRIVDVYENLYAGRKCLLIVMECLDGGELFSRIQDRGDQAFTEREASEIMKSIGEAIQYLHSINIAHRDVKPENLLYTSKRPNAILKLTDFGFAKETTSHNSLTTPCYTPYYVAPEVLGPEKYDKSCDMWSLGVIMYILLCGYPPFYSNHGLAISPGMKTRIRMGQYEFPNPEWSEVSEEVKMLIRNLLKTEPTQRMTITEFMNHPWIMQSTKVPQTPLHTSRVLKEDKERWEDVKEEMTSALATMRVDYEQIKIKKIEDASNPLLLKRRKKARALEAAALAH
Text: as §1

PRAK = molecular target: T2, PRAK (Homo sapiens, UniProt Q8IW41); assay: Kinase profiling PRAK; conditions: read-out: residual kinase activity, PRAK
T2 sequence (Q8IW41 1-473): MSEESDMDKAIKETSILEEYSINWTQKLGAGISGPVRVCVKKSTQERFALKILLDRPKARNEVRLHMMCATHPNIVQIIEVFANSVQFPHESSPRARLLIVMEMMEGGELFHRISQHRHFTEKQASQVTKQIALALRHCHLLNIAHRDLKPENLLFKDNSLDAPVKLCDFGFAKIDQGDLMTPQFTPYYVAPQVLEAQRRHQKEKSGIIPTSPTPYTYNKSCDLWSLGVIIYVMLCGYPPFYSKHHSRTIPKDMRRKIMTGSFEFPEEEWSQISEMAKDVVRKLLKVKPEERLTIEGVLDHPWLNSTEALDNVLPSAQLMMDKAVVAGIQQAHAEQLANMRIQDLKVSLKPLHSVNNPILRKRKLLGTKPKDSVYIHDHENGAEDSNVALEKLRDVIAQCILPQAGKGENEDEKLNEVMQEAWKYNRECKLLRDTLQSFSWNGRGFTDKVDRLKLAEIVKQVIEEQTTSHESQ
Text: as §1

PDGFRA = PDGFRA (Homo sapiens, UniProt P16234); assay: Kinase profiling PDGFRA; conditions: read-out: residual kinase activity, PDGFRA
Text: as §1

ULK1 = molecular target: T3, ULK1 (Homo sapiens, UniProt O75385); assay: Kinase profiling ULK1; conditions: read-out: residual kinase activity, ULK1
T3 sequence (O75385 1-1050): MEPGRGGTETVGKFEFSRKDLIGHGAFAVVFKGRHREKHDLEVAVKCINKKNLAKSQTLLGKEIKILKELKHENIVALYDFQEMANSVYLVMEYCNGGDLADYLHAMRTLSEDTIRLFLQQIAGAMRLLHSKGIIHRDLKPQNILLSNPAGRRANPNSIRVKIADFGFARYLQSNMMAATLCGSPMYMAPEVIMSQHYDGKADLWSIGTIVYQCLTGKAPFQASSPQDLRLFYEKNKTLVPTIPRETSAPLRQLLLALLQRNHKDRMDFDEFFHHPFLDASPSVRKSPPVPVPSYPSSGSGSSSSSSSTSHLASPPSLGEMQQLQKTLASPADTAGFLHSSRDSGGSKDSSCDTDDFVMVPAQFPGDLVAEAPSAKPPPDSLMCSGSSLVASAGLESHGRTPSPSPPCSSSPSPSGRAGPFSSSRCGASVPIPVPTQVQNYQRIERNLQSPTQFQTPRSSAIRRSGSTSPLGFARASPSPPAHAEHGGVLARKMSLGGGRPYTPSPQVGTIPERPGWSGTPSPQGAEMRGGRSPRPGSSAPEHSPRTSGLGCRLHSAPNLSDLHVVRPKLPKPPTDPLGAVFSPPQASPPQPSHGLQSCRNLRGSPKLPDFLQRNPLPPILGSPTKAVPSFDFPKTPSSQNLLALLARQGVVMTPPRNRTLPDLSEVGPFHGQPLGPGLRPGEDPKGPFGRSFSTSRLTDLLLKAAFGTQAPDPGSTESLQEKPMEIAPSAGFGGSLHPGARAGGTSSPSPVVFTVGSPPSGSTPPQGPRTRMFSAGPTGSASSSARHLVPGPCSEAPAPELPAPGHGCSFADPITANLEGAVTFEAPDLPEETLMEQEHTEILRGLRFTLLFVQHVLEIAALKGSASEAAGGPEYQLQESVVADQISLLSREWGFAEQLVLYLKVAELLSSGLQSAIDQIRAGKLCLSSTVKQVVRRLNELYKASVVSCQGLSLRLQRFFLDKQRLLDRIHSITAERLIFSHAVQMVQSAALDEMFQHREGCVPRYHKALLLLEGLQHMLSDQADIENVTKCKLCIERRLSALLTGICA
Text: as §1

ERK5 = ERK5 (Homo sapiens, UniProt Q13164); assay: Kinase profiling ERK5; conditions: for residual kinase activity, ERK5: 100 micromolar inhibitor concentration, 100 is no change
Text: as §1

[1] = 100 micromolar inhibitor concentration, 100 is no change
[2] = 100 micromolar inhibitor, 100 = no change

CDK9-Cyclin T1, sequence (P50750 whole entry): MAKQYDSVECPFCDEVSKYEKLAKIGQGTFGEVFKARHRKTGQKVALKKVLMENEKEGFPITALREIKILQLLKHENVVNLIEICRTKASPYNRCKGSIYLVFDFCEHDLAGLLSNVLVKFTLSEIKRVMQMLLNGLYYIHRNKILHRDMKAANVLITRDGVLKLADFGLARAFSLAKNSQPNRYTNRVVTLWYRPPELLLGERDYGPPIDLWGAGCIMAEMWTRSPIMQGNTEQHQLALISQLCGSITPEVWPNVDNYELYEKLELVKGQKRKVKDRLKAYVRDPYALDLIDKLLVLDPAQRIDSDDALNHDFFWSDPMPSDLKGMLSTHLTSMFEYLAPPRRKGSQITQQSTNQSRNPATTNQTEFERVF
CDK9-Cyclin T1, sequence (O60563 whole entry partner): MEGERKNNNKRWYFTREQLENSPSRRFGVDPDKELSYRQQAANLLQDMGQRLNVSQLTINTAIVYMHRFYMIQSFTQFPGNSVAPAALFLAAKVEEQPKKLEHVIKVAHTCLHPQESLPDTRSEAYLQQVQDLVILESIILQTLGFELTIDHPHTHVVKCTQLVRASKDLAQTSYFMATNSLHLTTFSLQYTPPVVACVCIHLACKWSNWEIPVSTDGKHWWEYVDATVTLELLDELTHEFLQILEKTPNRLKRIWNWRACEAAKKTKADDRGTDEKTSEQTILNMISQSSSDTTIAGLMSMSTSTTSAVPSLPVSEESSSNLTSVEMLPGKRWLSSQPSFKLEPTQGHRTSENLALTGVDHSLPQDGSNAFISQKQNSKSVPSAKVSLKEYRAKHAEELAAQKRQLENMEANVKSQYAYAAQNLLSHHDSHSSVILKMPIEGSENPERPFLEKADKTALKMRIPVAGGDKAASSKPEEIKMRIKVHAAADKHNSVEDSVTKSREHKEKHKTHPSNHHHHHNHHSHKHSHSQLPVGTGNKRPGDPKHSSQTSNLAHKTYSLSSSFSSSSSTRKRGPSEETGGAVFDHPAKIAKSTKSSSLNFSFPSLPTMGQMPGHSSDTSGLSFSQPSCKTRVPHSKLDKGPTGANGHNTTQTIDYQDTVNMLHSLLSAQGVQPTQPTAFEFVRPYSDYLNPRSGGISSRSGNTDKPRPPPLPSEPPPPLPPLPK

## CC(=O)Nc1nc2cc(O)ccc2s1 [Compound 01-66, N-(5-hydroxybenzo[d]thiazol-2-yl)acetamide]
CDK9-Cyclin T1
  remaining activity at 100 µM: 85%
IKKb
  remaining activity at 100 µM: 62%
IRR
  remaining activity at 100 µM: 30%
MNK2
  remaining activity at 100 µM: 33%
TTBK1
  remaining activity at 100 µM: 68%
IR
  remaining activity at 100 µM: 63%
MPSK1
  remaining activity at 100 µM: 80%
WNK1
  remaining activity at 100 µM: 101%
MAPKAP-K2
  remaining activity at 100 µM: 77%
PRAK
  remaining activity at 100 µM: 58%

## CC(=O)Nc1nc2ccc(O)cc2s1 [Compound 01-71]
CDK9-Cyclin T1; [1]
  remaining activity at 100 µM: 48%
IKKb; [1]
  remaining activity at 100 µM: 63%
IRR; [1]
  remaining activity at 100 µM: 34%
MNK2; [1]
  remaining activity at 100 µM: 34%
TTBK1; [1]
  remaining activity at 100 µM: 61%
IR; [1]
  remaining activity at 100 µM: 35%
MPSK1; [1]
  remaining activity at 100 µM: 77%
WNK1; [1]
  remaining activity at 100 µM: 96%
MAPKAP-K2; [1]
  remaining activity at 100 µM: 46%
PRAK; [1]
  remaining activity at 100 µM: 47%

## CC(=O)Nc1nc2ccc(C(F)(F)F)cc2s1 [Compound 01-90]
CDK9-Cyclin T1; [1]
  remaining activity at 100 µM: 26%
IKKb; [1]
  remaining activity at 100 µM: 75%
IRR; [1]
  remaining activity at 100 µM: 49%
MNK2; [1]
  remaining activity at 100 µM: 71%
TTBK1; [1]
  remaining activity at 100 µM: 88%
PDGFRA; [1]
  remaining activity at 100 µM: 30%
IR; [1]
  remaining activity at 100 µM: 84%
MPSK1; [1]
  remaining activity at 100 µM: 105%
WNK1; [1]
  remaining activity at 100 µM: 100%
MAPKAP-K2; [1]
  remaining activity at 100 µM: 90%
ULK1; [1]
  remaining activity at 100 µM: 87%
PRAK; [1]
  remaining activity at 100 µM: 111%

## CC(=O)Nc1nc2ccc(C#N)cc2s1 [Compound 01-94]
CDK9-Cyclin T1; [1]
  remaining activity at 100 µM: 15%
IKKb; [1]
  remaining activity at 100 µM: 58%
IRR; [1]
  remaining activity at 100 µM: 42%
MNK2; [1]
  remaining activity at 100 µM: 50%
TTBK1; [1]
  remaining activity at 100 µM: 73%
PDGFRA; [1]
  remaining activity at 100 µM: 40%
IR; [1]
  remaining activity at 100 µM: 81%
MPSK1; [1]
  remaining activity at 100 µM: 94%
WNK1; [1]
  remaining activity at 100 µM: 101%
MAPKAP-K2; [1]
  remaining activity at 100 µM: 65%
ULK1; [1]
  remaining activity at 100 µM: 92%
PRAK; [1]
  remaining activity at 100 µM: 69%

## CC(=O)Nc1cccc(NC(=O)c2nc3ccc(O)cc3s2)c1 [Compound 03-07, N-(3-acetamidophenyl)-6-hydroxybenzo[d]thiazole-2-carboxamide]
CDK9-Cyclin T1; [2]
  remaining activity at 100 µM: 76%
IKKb; [2]
  remaining activity at 100 µM: 88%
IRR; [2]
  remaining activity at 100 µM: 75%
MNK2; [2]
  remaining activity at 100 µM: 50%
TTBK1; [2]
  remaining activity at 100 µM: 93%
PDGFRA; [2]
  remaining activity at 100 µM: 44%
ERK5; 100 micromolar inhibitor, 100 = no change, read-out: residual kinase activity, ERK5
  remaining activity at 100 µM: 48%
IR; [2]
  remaining activity at 100 µM: 66%
MPSK1; [2]
  remaining activity at 100 µM: 108%
WNK1; [2]
  remaining activity at 100 µM: 115%
MAPKAP-K2; [2]
  remaining activity at 100 µM: 51%
ULK1; [2]
  remaining activity at 100 µM: 70%
PRAK; [2]
  remaining activity at 100 µM: 59%

## CC(=O)Nc1cccc(C(=O)Nc2nc3ccc(O)cc3s2)c1 [Compound 03-58]
ERK5
  residual kinase activity, ERK5: 31

## CC(=O)NC(C)C(=O)Nc1nc2ccc(C(F)(F)F)cc2s1 (stereo not shown) [Compound 03-80]
ERK5
  residual kinase activity, ERK5: 27

## CC(=O)Nc1ccccc1C(=O)Nc1nc2ccc(O)cc2s1 [Compound 08-39]
ERK5
  residual kinase activity, ERK5: 47

## COc1ccc2sc(NC(=O)c3ccc(NC(C)=O)cc3)nc2c1 [MS:LY-2-77]
ERK5
  residual kinase activity, ERK5: 74

## COc1ccc2sc(NC(=O)c3cccc(NC(C)=O)c3)nc2c1 [MS:LY-2-85]
ERK5
  residual kinase activity, ERK5: 45

## CC(=O)Nc1ccc(C(=O)Nc2nc3cc(O)ccc3s2)cc1 [MS:LY-2-87]
ERK5
  residual kinase activity, ERK5: 54

## CC(=O)Nc1cccc(C(=O)Nc2nc3cc(O)ccc3s2)c1 [MS:LY-2-89]
ERK5
  residual kinase activity, ERK5: 32
